The source of these data is US9999622B2, “Pyrazolothiazole compound and medicine comprising same” (NIPPON SHINYAKU CO., LTD., priority 2014, dated 2018).

Common to all, as to type: biochemical
For experiment [1], the target named is T1, JAK1 (Homo sapiens, UniProt P23458).
T1 construct: purchased Carna Biosciences, Inc
The experiment is described as follows: JAK tyrosine kinase inhibitory activity in the presence of 1 mM ATP (ELISA), JAK1. An outline of the steps:
(§1)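 Recombinant kinase (7.5 nM JAK1; 0.75 nM JAK2, JAK3 working dilutions) reacted 1 h at 30 °C with 1 mM ATP in Tris-HCl pH 7.5, Tween-20, DTT, on streptavidin plates. Phosphotyrosine detected by HRP anti-pTyr antibody ELISA, TMB absorbance at 450 nm; duplicate wells, DMSO as negative control.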

The target in experiment [2] is T2, JAK2 (Homo sapiens, UniProt O60674).
T2 construct: purchased Carna Biosciences, Inc
The experiment is described as follows: JAK tyrosine kinase inhibitory activity in the presence of 1 mM ATP (ELISA), JAK2. An outline of the steps: as §1
(In general: In an ELISA, binding on a coated surface is turned into a signal by an enzyme label.)

Experiment [3] addresses T3, JAK3 (Homo sapiens, UniProt P52333).
T3 construct: purchased Carna Biosciences, Inc
T3 sequence (P52333 1-1124): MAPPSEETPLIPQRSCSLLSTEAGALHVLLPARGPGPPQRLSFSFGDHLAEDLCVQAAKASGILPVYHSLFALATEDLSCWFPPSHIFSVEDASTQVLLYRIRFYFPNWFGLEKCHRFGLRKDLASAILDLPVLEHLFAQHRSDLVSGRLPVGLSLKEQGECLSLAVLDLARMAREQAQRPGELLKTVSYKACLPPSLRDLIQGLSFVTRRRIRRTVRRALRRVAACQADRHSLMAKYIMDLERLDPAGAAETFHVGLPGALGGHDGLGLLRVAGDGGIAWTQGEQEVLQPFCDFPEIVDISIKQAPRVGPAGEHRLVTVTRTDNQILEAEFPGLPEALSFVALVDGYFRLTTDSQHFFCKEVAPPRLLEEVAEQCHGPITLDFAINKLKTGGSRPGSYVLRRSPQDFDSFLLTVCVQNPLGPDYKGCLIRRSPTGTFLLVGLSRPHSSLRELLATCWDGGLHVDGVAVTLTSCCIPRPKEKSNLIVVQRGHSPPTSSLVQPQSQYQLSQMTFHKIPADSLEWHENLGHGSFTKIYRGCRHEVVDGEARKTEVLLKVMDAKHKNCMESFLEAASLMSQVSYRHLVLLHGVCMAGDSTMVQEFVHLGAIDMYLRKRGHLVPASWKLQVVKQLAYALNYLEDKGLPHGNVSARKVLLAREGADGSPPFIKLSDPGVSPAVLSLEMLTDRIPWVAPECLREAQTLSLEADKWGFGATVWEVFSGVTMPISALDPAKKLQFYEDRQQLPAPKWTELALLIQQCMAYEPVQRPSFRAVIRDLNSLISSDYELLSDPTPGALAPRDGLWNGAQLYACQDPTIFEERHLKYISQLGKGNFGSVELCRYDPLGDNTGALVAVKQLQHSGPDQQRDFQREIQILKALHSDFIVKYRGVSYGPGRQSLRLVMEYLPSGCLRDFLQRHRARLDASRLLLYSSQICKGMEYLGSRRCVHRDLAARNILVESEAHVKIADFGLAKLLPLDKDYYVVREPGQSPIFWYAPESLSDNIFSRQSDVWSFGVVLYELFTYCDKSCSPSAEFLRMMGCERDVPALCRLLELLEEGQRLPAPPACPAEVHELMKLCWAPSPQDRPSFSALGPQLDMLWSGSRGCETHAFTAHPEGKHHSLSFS
The experiment is described as follows: JAK tyrosine kinase inhibitory activity in the presence of 1 mM ATP (ELISA), JAK3. An outline of the steps: as §1

Where a name gives a salt, the structure may show the parent alone. Bounds are passed on as bounds.

The term IC50 denotes the concentration needed to halve the response being measured.

T2 sequence (O60674 whole entry): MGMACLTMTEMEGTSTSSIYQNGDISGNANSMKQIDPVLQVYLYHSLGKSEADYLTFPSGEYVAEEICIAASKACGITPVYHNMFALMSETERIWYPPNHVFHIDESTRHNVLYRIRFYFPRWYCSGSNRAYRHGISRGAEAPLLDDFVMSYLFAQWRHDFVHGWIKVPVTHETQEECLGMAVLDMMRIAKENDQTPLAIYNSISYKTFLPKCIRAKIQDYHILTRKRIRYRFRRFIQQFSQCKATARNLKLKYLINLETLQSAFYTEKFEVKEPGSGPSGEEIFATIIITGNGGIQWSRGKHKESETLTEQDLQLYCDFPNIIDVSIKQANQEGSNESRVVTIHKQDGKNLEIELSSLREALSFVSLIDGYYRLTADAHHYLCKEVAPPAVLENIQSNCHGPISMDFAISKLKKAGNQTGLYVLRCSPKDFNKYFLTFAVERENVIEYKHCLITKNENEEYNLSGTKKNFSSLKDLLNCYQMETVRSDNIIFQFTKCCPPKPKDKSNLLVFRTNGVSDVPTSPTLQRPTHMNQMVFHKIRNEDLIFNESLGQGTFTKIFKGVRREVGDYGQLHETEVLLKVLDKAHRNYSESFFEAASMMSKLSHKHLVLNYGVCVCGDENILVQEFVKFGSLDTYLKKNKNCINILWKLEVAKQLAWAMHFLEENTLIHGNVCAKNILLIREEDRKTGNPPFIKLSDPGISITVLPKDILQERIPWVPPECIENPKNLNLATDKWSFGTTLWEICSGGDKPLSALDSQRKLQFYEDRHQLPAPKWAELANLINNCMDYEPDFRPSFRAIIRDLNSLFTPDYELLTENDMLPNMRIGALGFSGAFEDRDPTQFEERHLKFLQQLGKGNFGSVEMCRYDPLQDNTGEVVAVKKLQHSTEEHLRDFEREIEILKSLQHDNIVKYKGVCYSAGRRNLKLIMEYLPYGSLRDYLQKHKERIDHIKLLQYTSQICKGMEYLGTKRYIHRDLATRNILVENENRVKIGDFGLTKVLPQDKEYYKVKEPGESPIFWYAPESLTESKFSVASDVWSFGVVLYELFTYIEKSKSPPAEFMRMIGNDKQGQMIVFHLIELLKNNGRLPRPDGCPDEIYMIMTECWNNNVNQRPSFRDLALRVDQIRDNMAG
T1 sequence (P23458 whole entry): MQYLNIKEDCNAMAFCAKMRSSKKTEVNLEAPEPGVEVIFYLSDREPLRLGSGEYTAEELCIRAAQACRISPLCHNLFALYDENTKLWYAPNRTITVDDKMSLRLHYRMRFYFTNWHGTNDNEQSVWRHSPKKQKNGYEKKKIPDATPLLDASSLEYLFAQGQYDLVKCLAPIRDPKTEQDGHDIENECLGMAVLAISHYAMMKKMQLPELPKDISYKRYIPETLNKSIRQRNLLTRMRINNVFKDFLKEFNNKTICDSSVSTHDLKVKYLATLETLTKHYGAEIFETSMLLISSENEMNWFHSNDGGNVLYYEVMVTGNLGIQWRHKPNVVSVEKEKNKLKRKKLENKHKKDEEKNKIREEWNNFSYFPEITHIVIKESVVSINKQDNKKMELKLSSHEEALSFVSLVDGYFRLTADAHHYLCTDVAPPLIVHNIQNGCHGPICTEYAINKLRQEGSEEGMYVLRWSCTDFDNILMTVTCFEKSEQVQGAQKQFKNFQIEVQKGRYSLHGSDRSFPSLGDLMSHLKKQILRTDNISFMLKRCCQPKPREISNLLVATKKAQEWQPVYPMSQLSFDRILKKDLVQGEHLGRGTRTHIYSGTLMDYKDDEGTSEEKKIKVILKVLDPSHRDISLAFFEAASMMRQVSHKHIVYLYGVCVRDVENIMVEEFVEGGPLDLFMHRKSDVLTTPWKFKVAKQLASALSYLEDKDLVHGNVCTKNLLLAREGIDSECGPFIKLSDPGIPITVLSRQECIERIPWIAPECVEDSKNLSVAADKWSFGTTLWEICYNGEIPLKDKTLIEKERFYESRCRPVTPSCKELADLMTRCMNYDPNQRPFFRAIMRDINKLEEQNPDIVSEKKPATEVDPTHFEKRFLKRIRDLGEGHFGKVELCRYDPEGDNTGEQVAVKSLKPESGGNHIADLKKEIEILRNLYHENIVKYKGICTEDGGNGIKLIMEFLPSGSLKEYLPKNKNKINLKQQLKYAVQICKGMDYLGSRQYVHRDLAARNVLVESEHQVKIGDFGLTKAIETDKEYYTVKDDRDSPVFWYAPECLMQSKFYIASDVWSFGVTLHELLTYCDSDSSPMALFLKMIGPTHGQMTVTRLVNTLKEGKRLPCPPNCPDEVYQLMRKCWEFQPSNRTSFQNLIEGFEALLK

Take `COC(=O)NC1CCN(C(=O)c2cc(N[C@@H]3CCNC3)nc(-c3cnn4ccsc34)n2)CC1` [Example 150, Methyl [1-({2-(pyrazolo[5,1-b][1,3]thiazol-7-yl)-6-[(3R)-pyrrolidin-3-ylamino]pyrimidin-4-yl}carbonyl)piperidin-4-yl]carbamate dihydrochloride]: the IC50 in experiment [1] is 5200 nM; in experiment [2] it was more than 10000 nM; in experiment [3], more than 10000 nM.
As to `COC(=O)NC1CCN(C(=O)c2cc(N[C@@H]3CCN(C)C3)nc(-c3cnn4ccsc34)n2)CC1` [Example 151, Methyl (1-{[6-{[(3R)-1-methylpyrrolidin-3-yl]amino}-2-(pyrazolo[5,1-b][1,3]thiazol-7-yl)pyrimidin-4-yl]carbonyl}piperidin-4-yl)carbamate], the IC50 was 2600 nM in experiment [1], more than 10000 nM in experiment [2] and more than 10000 nM in experiment [3].
In the case of `COC(=O)NC1CCN(C(=O)c2cc(N[C@@H]3CCN(C(C)=O)C3)nc(-c3cnn4ccsc34)n2)CC1` [Example 152, Methyl (1-{[6-{[(3R)-1-acetylpyrrolidin-3-yl]amino}-2-(pyrazolo[5,1-b][1,3]thiazol-7-yl)pyrimidin-4-yl]carbonyl}piperidin-4-yl)carbamate], the IC50 is 2300 nM in experiment [1], more than 10000 nM in experiment [2] and more than 10000 nM in experiment [3].
As for `CC[C@H](C)Nc1nc(-c2cnn3ccsc23)nc(C(=O)N2CCC(NC(=O)OC)CC2)c1OC` [Example 153, Methyl [1-({6-[(2S)-butan-2-ylamino]-5-methoxy-2-(pyrazolo[5,1-b][1,3]thiazol-7-yl)pyrimidin 4 yl}carbonyl)piperidin-4-yl]carbamate], the values for the IC50 in experiment [1], in experiment [2] and in experiment [3] were 210 nM, 7200 nM and 9000 nM, respectively.
For the compound `CCOc1c(N[C@@H](C)C2CC2)nc(-c2cnn3ccsc23)nc1C(=O)N1CCC(NC(=O)OC)CC1` [Example 154, Methyl (1-{[6-{[(1S)-1-cyclopropylethyl]amino}-5-ethoxy-2-(pyrazolo[5,1-b][1,3]thiazol-7-yl)pyrimidin-4-yl]carbonyl}piperidin-4-yl)carbamate], the IC50 came to 180 nM in experiment [1], 5300 nM in experiment [2] and 3100 nM in experiment [3].
Regarding `CCOc1c(N[C@H](C)C(C)(C)C)nc(-c2cnn3ccsc23)nc1C(=O)N1CCC(NC(=O)OC)CC1` [Example 155, Methyl (1-{[6-{[(2R)-3,3-dimethylbutan-2-yl]amino}-5-ethoxy-2-(pyrazolo[5,1 b][1,3]thiazol 7-yl)pyrimidin-4-yl]carbonyl}piperidin-4-yl)carbamate], the half-inhibitory concentration (IC50) in experiment [1] amounted to 24 nM; in experiment [2], 4600 nM; in experiment [3] it was 1400 nM.
With `CCC1CCCCN1c1cc(C(=O)N2CCC(NC(=O)C3CC3)CC2)nc(-c2cnn3ccsc23)n1` (stereo not drawn) [Example 157, N-(1-{[6-(2-ethylpiperidin-1-yl)-2-(pyrazolo[5,1-b][1,3]thiazol-7-yl)pyrimidin-4-yl]carbonyl}piperidin-4-yl)cyclopropanecarboxamide], the half-maximal inhibitory concentration (IC50) is 310 nM in experiment [1], 5100 nM in experiment [2] and more than 10000 nM in experiment [3].
Take `COC(=O)NC1CCN(C(=O)c2cc(NCC(F)(F)F)nc(-c3cnn4ccsc34)n2)CC1` [Example 158, Methyl (1-2-(pyrazolo[5,1-b][1,3]thiazol-7-yl)-6-[(2,2,2-trifluoroethyl)amino]pyrimidine-4-carbonylpiperidin-4-yl)carbamate]: the IC50 in experiment [1] is 1300 nM; in experiment [2] it was more than 10000 nM; in experiment [3] it was more than 10000 nM.
With `O=C(NC1CCN(C(=O)c2cc(NCc3cccs3)nc(-c3cnn4ccsc34)n2)CC1)C1CC1` [Example 159, N-1-[2-(pyrazolo[5,1-b][1,3]thiazol-7-yl)-6-[(thiophen-2-yl)methyl]aminopyrimidine-4-carbonyl]piperidin-4-ylcyclopropanecarboxamide], the half-maximal inhibitory concentration (IC50) in experiment [1] was 2600 nM; in experiment [2], more than 10000 nM; in experiment [3] it was more than 10000 nM.
For `O=C(NC1CCN(C(=O)c2cc(NCc3ccco3)nc(-c3cnn4ccsc34)n2)CC1)C1CC1` [Example 160, N-1-[6-[(furan-2-yl)methyl]amino-2-(pyrazolo[5,1-b][1,3]thiazol-7-yl)pyrimidine-4-carbonyl]piperidin-4-ylcyclopropanecarboxamide], the half-maximal inhibitory concentration (IC50) in experiment [1] is 980 nM; in experiment [2], more than 10000 nM; in experiment [3] it was more than 10000 nM.
For the compound `COC(=O)NC1CCN(C(=O)c2cc(N[C@H](C)C3CCCCC3)nc(-c3cnn4ccsc34)n2)CC1` [Example 161, Methyl 1-[6-[(1R)-1-cyclohexylethyl]amino-2-(pyrazolo[5,1-b][1,3]thiazol-7-yl)pyrimidine-4-carbonyl]piperidin-4-ylcarbamate], the values for the IC50 in experiment [1], in experiment [2] and in experiment [3] were 47 nM, more than 10000 nM and more than 10000 nM, respectively.
Consider `COC(=O)NC1CCN(C(=O)c2cc(NC(C)c3ccncc3)nc(-c3cnn4ccsc34)n2)CC1` (stereo not drawn) [Example 162, Methyl 1-[2-(pyrazolo[5,1 b][1,3]thiazol-7-yl)-6-[1-(pyridin-4-yl)ethyl]aminopyrimidine-4-carbonyl]piperidin-4-ylcarbamate], for which the figures for the half-inhibitory concentration (IC50) in experiment [1], in experiment [2] and in experiment [3] were 1100 nM, more than 10000 nM and more than 10000 nM, respectively.
Regarding `COC(=O)NC1CCN(C(=O)c2cc(NCCC3CC3)nc(-c3cnn4ccsc34)n2)CC1` [Example 163, Methyl (1-6-[(2-cyclopropylethyl)amino]-2-(pyrazolo[5,1-b][1,3]thiazol-7-yl)pyrimidine-4-carbonylpiperidin-4-yl)carbamate], the figures for the IC50 in experiment [1], in experiment [2] and in experiment [3] were 450 nM, more than 10000 nM and 5600 nM, respectively.
With `COC(=O)NC1CCN(C(=O)c2cc(OCC3CN(C(=O)OC(C)(C)C)C3)nc(-c3cnn4ccsc34)n2)CC1` [Example 164, Tert-butyl 3-([6-4-[(methoxycarbonyl)amino]piperidine-1-carbonyl-2-(pyrazolo[5,1-b][1,3]thiazol-7-yl)pyrimidin-4-yl]oxymethyl)azetidine-1-carboxylate], the IC50 in experiment [1] was 2600 nM; in experiment [2], more than 10000 nM; in experiment [3] it was more than 10000 nM.
Consider `C[C@H](Nc1cc(C(=O)N2CCC(NC(=O)C3CCC3)CC2)nc(-c2cnn3ccsc23)n1)C1CC1` [Example 165, N-1-[6-[(1S)-1-cyclopropylethyl]amino-2-(pyrazolo[5,1-b][1,3]thiazol-7-yl)pyrimidine-4-carbonyl]piperidin-4-yl cyclobutanecarboxamide], for which the IC50 in experiment [1] is 40 nM; in experiment [2], more than 10000 nM; in experiment [3] it was 1200 nM.
The like results for `C[C@H](Nc1cc(C(=O)N2CCC(NC(=O)C3CCCCC3)CC2)nc(-c2cnn3ccsc23)n1)C1CC1` [Example 167, N-1-[6-[(1S)-1-cyclopropylethyl]amino-2-(pyrazolo[5,1-b][1,3]thiazol-7-yl)pyrimidine-4-carbonyl]piperidin-4-ylcyclohexanecarboxamide] were, in that order, 230 nM, 9500 nM and 1100 nM.
Regarding `O=C(NC1CCN(C(=O)c2cc(N[C@H]3CC[C@H](O)CC3)nc(-c3cnn4ccsc34)n2)CC1)C1CC1` [Example 168, N-(1-6-[(trans-4-hydroxycyclohexyl)amino]-2-(pyrazolo[5,1-b][1,3]thiazol-7-yl)pyrimidine-4-carbonylpiperidin-4-yl)cyclopropanecarboxamide], the half-inhibitory concentration (IC50) in experiment [1] was 1200 nM; in experiment [2], more than 10000 nM; in experiment [3], 3200 nM.
